Experimental data taken from patent US20080108513A1, “Cellular Arrays” (Northwestern University, priority 2006, published 2008).

Molecular target: T1, ERα (Homo sapiens, UniProt P03372)
T1 sequence (P03372 1-595): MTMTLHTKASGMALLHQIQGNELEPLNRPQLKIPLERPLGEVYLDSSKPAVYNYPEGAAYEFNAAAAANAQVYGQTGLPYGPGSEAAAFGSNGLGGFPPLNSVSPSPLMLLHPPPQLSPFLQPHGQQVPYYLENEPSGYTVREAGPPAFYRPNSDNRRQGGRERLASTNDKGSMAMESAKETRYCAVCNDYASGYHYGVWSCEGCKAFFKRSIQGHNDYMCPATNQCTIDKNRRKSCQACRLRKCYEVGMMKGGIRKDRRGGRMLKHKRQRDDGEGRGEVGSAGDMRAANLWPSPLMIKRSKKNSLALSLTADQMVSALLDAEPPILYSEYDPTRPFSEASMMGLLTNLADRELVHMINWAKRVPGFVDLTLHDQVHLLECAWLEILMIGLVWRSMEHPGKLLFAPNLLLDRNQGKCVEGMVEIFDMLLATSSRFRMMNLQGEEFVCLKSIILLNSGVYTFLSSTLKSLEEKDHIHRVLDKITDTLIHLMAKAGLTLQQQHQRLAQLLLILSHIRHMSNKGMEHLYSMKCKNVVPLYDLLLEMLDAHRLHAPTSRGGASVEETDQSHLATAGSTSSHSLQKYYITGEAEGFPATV

Structure (SMILES): C[C@]12CC[C@@H]3c4ccc(O)cc4C[C@@H](CCCCCCCCC[S+]([O-])CCCC(F)(F)C(F)(F)F)[C@H]3[C@@H]1CC[C@@H]2O (some centres unmarked) [FUL, fulvestrant]
- blockade of ERα-stimulated activity by E2 (10^−6 M FUL with 10^−9 M E2, MCF-7 cells on array): complete blockade
- effect on expression of the pLUC plasmid (CMV promoter) (MCF-7 cells on array, 10^−9 M E2 or 10^−9 M E2+10^−6 M FUL): lowered
